Experimental data reported in BindingDB's records for doi:10.1002/1520-636X(2001)13:3 (University of Maryland, 2001).

How the values were obtained:
[1] = target: Mu-type opioid receptor (Rattus norvegicus, UniProt P33535)
[2] = target: Delta-type opioid receptor (Mus musculus, UniProt P32300)
[3] = target: Kappa-type opioid receptor (Rattus norvegicus, UniProt P34975)
Chain of Kappa-type opioid receptor (P34975 whole entry): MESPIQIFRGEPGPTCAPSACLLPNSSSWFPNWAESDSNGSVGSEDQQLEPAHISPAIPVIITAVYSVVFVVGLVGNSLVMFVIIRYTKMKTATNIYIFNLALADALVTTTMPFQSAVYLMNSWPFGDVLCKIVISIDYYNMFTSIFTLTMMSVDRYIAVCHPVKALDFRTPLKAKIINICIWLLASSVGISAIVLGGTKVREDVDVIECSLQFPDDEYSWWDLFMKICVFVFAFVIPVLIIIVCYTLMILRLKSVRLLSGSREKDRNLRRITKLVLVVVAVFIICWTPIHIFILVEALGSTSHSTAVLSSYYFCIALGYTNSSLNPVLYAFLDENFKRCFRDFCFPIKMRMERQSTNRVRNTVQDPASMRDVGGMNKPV

Chain of Delta-type opioid receptor (P32300 whole entry): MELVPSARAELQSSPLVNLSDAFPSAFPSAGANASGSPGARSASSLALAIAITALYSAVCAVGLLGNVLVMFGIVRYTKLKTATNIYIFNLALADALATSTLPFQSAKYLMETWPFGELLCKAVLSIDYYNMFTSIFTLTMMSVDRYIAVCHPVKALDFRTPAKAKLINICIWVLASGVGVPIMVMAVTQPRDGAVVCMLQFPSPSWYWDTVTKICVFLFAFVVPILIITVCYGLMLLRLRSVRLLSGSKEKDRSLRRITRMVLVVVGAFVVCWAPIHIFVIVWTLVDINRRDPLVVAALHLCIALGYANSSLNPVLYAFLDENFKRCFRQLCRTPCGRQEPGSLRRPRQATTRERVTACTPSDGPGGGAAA
Chain of Mu-type opioid receptor (P33535 whole entry): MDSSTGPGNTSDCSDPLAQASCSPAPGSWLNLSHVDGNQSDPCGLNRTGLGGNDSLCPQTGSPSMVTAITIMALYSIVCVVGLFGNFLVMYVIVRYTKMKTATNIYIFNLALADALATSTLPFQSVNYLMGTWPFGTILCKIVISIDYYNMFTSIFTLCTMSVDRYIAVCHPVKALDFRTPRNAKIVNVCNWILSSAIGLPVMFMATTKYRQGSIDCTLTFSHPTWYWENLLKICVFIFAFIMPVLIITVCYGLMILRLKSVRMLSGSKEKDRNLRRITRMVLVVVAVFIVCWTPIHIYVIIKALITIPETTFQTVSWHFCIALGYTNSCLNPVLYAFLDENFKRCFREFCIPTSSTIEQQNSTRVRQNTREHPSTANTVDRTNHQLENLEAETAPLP

Row | SMILES | Ki [1] [nM] | Ki [2] [nM] | Ki [3] [nM]
1 | CC(C)C[C@H](NC(=O)[C@@H](Cc1ccccc1)NC(=O)CNC(=O)CNC(=O)[C@@H](N)Cc1ccc(O)cc1)C(=O)N[C@@H](CCCN=C(N)N)C(=O)N[C@@H](CCCN=C(N)N)C(=O)N[C@H](C)C(=O)N[C@@H](CCCN=C(N)N)C(=O)N1CCC[C@H]1C(=O)N[C@@H](CCCCN)C(N)=O [[D-Phe4, D-Ala8]Dyn A-(1-11)NH2] | 88.2 | > 10000 | –
2 | CC(C)C[C@H](NC(=O)[C@H](Cc1ccccc1)NC(=O)CNC(=O)CNC(=O)[C@@H](N)Cc1ccc(O)cc1)C(=O)N[C@@H](CCCN=C(N)N)C(=O)N[C@@H](CCCN=C(N)N)C(=O)N[C@H](C)C(=O)N[C@@H](CCCN=C(N)N)C(=O)N1CCC[C@H]1C(=O)N[C@@H](CCCCN)C(N)=O [[D-Ala8]Dyn A-(1-11)NH2] | – | – | 9.53
